Results reported in US11839679B2, “Gamma-diketones for treatment and prevention of aging skin and wrinkles” (BioSplice Therapeutics, Inc., priority 2014, dated 2023).

System: fine lines, wrinkles in the outer canthus of the eyes (crow's feet area)
Experiment: Roughness reduction [SEr] via Visioscan, Example 1
Format: in vivo, human
Set-up: Roughness [SEr] via Visioscan / Roughness [SEr] via Visioscan, Mean: scale not given here
Description: Three groups of women were recruited to evaluate and compare the efficacy of three anti-aging test products (targeting the periorbital eye area) intended to reduce the appearance of fine lines, wrinkles in the outer canthus of the eyes (crow's feet area) over a 12 week period. Wrinkle assessment was conducted instrumentally using a Visioscan image analysis system. Effectiveness of the test product was evaluated using panelist self-assessment via questionnaire responses comprised of 3-4 questions (Q1, Q2, Q3 & Q4). Each stage in the progression of treatments was photographically documented using a High Resolution Scientifically Matched Photography technique. Image analysis was utilized to quantify changes in fine lines and crow's feet condition observed in the Scientifically Matched Photographs.
Subject Selection: • Number: Six subjects (two per group) to complete the study. • Sex: Females • Race: Caucasian/Asian/Hispanic • Age Range: 40 through 60 years old
Test samples: • Topical 0.15% of Compound #222 in Oil (a 50/50 mixture of • Propylene Glycol Dicaprylate/Dicaprate and Caprylic/Capric Triglyceride) (Cohort 1) • Topical 0.15% of Compound #222 in PEG400 (Cohort 2) • Topical 0.05% of Compound #222 in PEG400 (Cohort 3)
Prior to baseline measurements being taken, areas of involvement were marked on the facial surface using a standard template, to ensure that instruments were repositioned in the same location at each visit. The biophysical measurements (Surface Evaluation of Living Skin via Visioscan) were conducted by a trained technician. Pre-treatment High Resolution Scientifically Matched Photographs were taken.
[…] After acclimating to ambient conditions, High Resolution Scientifically Matched Photographs were be taken and biophysical measurements (Surface Evaluation of Living Skin via Visioscan) were repeated using the standard template to identify test sites on the face. In addition (during the acclimation period) all participants were be asked to fill out a self-assessment questionnaire.
Surface Evaluation of Living Skin Visioscan: The Visioscan (Courage and Khazaka) took a direct image of the living skin using a measuring head containing a CCD-camera and two metal halogen lamps positioned opposite each other in order to ensure even illumination of the measuring field on the skin (Skin Pharmacol Appl Skin Physiol (1999), 12(1-2), 1-11 and Cosmetic & Toiletries magazine (2009), 124(6), 51-54). The grey level distribution of the pixels in the image correspond to different phenomena (white pixels represent desquamation on the skin, dark pixels represent lines and wrinkles). The software with the Visioscan automatically calculates skin smoothness, skin roughness, scaliness and wrinkle parameters. […]
The source data was Visioscan and PhotoGrammetrix Image Analysis readings along with subjective assessments, which were totaled and reported as average scores. Photographs were placed side by side as to compare the photographs of before and after application of the test product in the eye area. […] The data obtained via Visioscan and from PhotoGrammetrix Image Analysis was quoted as % differences from baseline at each of the previously described time points. A paired t-test analysis was conducted in order to compare the results of post test product application measurements to baseline measurements where applicable. Statistical significance was established if p≤(α=0.05) was calculated.

`O=C(CCC(=O)c1ccc2c(c1)OCO2)c1ccccc1` [#222] was tested, and the “Roughness [SEr] via Visioscan, Mean” value (Day 7, Topical 0.05% in PEG (Cohort 3)) was 1.64, the “Roughness [SEr] via Visioscan, Mean” value (Day 7, Topical 0.15% in Oil (Cohort 1)) was 1.97 and the “Roughness [SEr] via Visioscan, Mean” value (Day 7, Topical 0.15% in PEG (Cohort 2)) was 1.67. For the same molecule, the “Roughness [SEr] via Visioscan, % Difference of Mean” value (“Roughness … % Difference of Mean” below) (Day 7 vs Baseline, Topical 0.05% in PEG (Cohort 3)) was −20.24%, the “Roughness … % Difference of Mean” value (Day 7 vs Baseline, Topical 0.15% in Oil (Cohort 1)) was −10.36% and the “Roughness … % Difference of Mean” value (Day 7 vs Baseline, Topical 0.15% in PEG (Cohort 2)) was −10.19%. The “Roughness [SEr] via Visioscan, Mean” value (Day 14, Topical 0.05% in PEG (Cohort 3)) was 1.51, the “Roughness [SEr] via Visioscan, Mean” value (Day 14, Topical 0.15% in Oil (Cohort 1)) was 1.77 and the “Roughness [SEr] via Visioscan, Mean” value (Day 14, Topical 0.15% in PEG (Cohort 2)) was 1.62. The “Roughness … % Difference of Mean” value (Day 14 vs Baseline, Topical 0.05% in PEG (Cohort 3)) was −26.59%, the “Roughness … % Difference of Mean” value (Day 14 vs Baseline, Topical 0.15% in Oil (Cohort 1)) was −19.36% and the “Roughness … % Difference of Mean” value (Day 14 vs Baseline, Topical 0.15% in PEG (Cohort 2)) was −12.53%. The “Roughness [SEr] via Visioscan” value (Subject #1, Day 7, Topical 0.15% in Oil (Cohort 1)) was 2.46, the “Roughness [SEr] via Visioscan, Individual % Difference” value (from here on “Roughness … Individual % Difference”) (Subject #1, Day 7 vs Baseline, Topical 0.15% in Oil (Cohort 1)) was −1.60% and the “Roughness [SEr] via Visioscan” value (Subject #1, Day 14, Topical 0.15% in Oil (Cohort 1)) was 2.25. For the same molecule, the “Roughness … Individual % Difference” value (Subject #1, Day 14 vs Baseline, Topical 0.15% in Oil (Cohort 1)) was −9.82%, the “Roughness [SEr] via Visioscan” value (Subject #2, Day 7, Topical 0.15% in Oil (Cohort 1)) was 1.48 and the “Roughness … Individual % Difference” value (Subject #2, Day 7 vs Baseline, Topical 0.15% in Oil (Cohort 1)) was −21.90%. The “Roughness [SEr] via Visioscan” value (Subject #2, Day 14, Topical 0.15% in Oil (Cohort 1)) was 1.29, the “Roughness … Individual % Difference” value (Subject #2, Day 14 vs Baseline, Topical 0.15% in Oil (Cohort 1)) was −31.93% and the “Roughness [SEr] via Visioscan” value (Subject #3, Day 7, Topical 0.15% in PEG (Cohort 2)) was 1.95. The “Roughness … Individual % Difference” value (Subject #3, Day 7 vs Baseline, Topical 0.15% in PEG (Cohort 2)) was −11.79%, the “Roughness [SEr] via Visioscan” value (Subject #3, Day 14, Topical 0.15% in PEG (Cohort 2)) was 1.90 and the “Roughness … Individual % Difference” value (Subject #3, Day 14 vs Baseline, Topical 0.15% in PEG (Cohort 2)) was −13.83%. The “Roughness [SEr] via Visioscan” value (Subject #4, Day 7, Topical 0.15% in PEG (Cohort 2)) was 1.39, the “Roughness … Individual % Difference” value (Subject #4, Day 7 vs Baseline, Topical 0.15% in PEG (Cohort 2)) was −7.84% and the “Roughness [SEr] via Visioscan” value (Subject #4, Day 14, Topical 0.15% in PEG (Cohort 2)) was 1.35. The “Roughness … Individual % Difference” value (Subject #4, Day 14 vs Baseline, Topical 0.15% in PEG (Cohort 2)) was −10.63%, the “Roughness [SEr] via Visioscan” value (Subject #5, Day 7, Topical 0.05% in PEG (Cohort 3)) was 1.83 and the “Roughness … Individual % Difference” value (Subject #5, Day 7 vs Baseline, Topical 0.05% in PEG (Cohort 3)) was −29.07%. For the same molecule, the “Roughness [SEr] via Visioscan” value (Subject #5, Day 14, Topical 0.05% in PEG (Cohort 3)) was 1.77, the “Roughness … Individual % Difference” value (Subject #5, Day 14 vs Baseline, Topical 0.05% in PEG (Cohort 3)) was −31.40% and the “Roughness [SEr] via Visioscan” value (Subject #6, Day 7, Topical 0.05% in PEG (Cohort 3)) was 1.44. For the same molecule, the “Roughness … Individual % Difference” value (Subject #6, Day 7 vs Baseline, Topical 0.05% in PEG (Cohort 3)) was −5.26%, the “Roughness [SEr] via Visioscan” value (Subject #6, Day 14, Topical 0.05% in PEG (Cohort 3)) was 1.24 and the “Roughness … Individual % Difference” value (Subject #6, Day 14 vs Baseline, Topical 0.05% in PEG (Cohort 3)) was −18.42%.
